Test results published in patent US6514981B1, “Methods of modulating tyrosine protein kinase function with indolinone compounds” (Sugen, Inc., priority 1998, dated 2003).

Key:
Format in all cases: cell-based
3T3EGFR = experiment: BrdU incorporation assay, 3T3EGFR, EGF
HUV-EC-C cells = experiment: HUV-EC-C assay (3H-thymidine), aFGF; conditions: Homo sapiens, 3H-thymidine incorporation, HUVEC
Method: The following protocol may also be used to measure a compound's activity against PDGF-R, FGF-R or Flk-1/KDR, all of which are naturally expressed by HUV-EC cells. 1. Wash and trypsinize HUV-EC-C cells (human umbilical vein endothelial cells, (American Type Culture Collection; catalogue no. 1730 CRL). Wash with Dulbecco's phosphate-buffered saline (D-PBS; obtained from Gibco BRL, catalogue no. 14190-029) 2 times at about 1 mL/10 CM^2 of tissue culture flask. Trypsinize with 0.05% trypsin-EDTA in non-enzymatic cell dissociation solution (Sigma Chemical Company; catalogue no. C-1544). The 0.05% trypsin was made by diluting 0.25% trypsin/1 mM EDTA (Gibco; catalogue no. 25200-049) in the cell dissociation solution. Trypsinize with about 1 mL/25-30 cm^2 of tissue culture flask for about 5 minutes at 37° C. After cells have detached from the flask, add an equal volume of assay medium and transfer to a 50 mL sterile centrifuge tube (Fisher Scientific; catalogue no. 05-539-6). 2. Wash the cells with about 35 mL assay medium in the 50 mL sterile centrifuge tube by adding the assay medium, centrifuge for 10 minutes at approximately 200×g aspirate the supernatant and resuspend with 35 mL D-PBS. Repeat the wash two more times with D-PBS, resuspend the cells in about 1 mL assay medium/15 cm^2 of tissue culture flask. […]

A431 cells = experiment: Growth of A431 cells (SRB); conditions: Homo sapiens, A-431, 72 h, 2% calf serum, 3 days
Method: The following assay measures growth rates for A43 1 cells.
2% calf serum/DMEM+2 mM glutamine, Pen/Strep
2. Dilute cells in growth medium to 60,000 cell/mL. Transfer 100 μL of cells to each well in a 96-well flat bottom plate to give 6000 cells/well.
1. In a 96-well round bottom plate, add 120 μL of growth medium containing 2×final % DMSO found in highest screening concentration of compound to columns 1 to 11. For example, if the highest concentration is […], ad this is made from a 100 mM stock, 1×DMSO is 0.1%, so 2×DMSO is 0.2%. This plate is used to titrate out the compound, 4 rows per compound.
2. In a sterile 15 mL tube, make a 2×solution of the highest screening concentration of compound in growth medium plus 2×DMSO. 1 mL per cell line is needed. The starting concentration of the compound is usually 100 μM but this concentration may vary depending upon the solubility of the compound.
3. Transfer 240 μL of the 2×starting compound solution to qudruplicate wells in column 12 of the 96-well round bottom plate. Do 1:2 serial dilutions across the plate from right to left by transferring […] from column 12 to column 11, column 11 to 10 and so on through column 2. […]
6. Read plates on Dynatech ELISA Plate REader at 570 nm with reference at 630 nm. […]

- IC50 (HUV-EC-C cells): 0.63 µM
- IC50 (A431 cells): 0.712 µM
SMILES: Cc1cc(/C=C2/C(=O)Nc3ccccc32)c(C)c2c1[nH]c1ccccc12 [VI]
- IC50 (3T3EGFR): 7.03 µM
